Test systems include CAKI-1; A549; SK-OV-3; SK-MEL-2; T47D; HOP-62; M14; SF-268; MCF7; NCI-H460; SK-MEL-5; 786-0; HCT-116; SF-295; MDA-N; SN12C; UO-31; DU-145; HOP-92.
What all share (assay): NCI anticancer screen, dose series, 48 h

Data on four compounds can be found in ChEMBL document CHEMBL1201862, “PubChem BioAssay data set” (2004).

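Tested at 5 concentrations; 48 h exposure; 96-well plates; endpoints linearly interpolated, else capped at highest concentration. GI50 marks 50% less growth.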 Active and inactive are the calls of the source. Cut-off read from the data, not from the text of the source: active = GI50 up to about 1.1 µM and inactive = higher.

Take `O=C(O)COc1c(Cl)cc(Cl)c(C(c2c(Cl)cc(Cl)c(OCC(=O)O)c2Cl)C(Cl)(Cl)Cl)c1Cl`: the GI50 in the experiment on CAKI-1 was 33.7 µM (inactive); in the experiment on A549 it was 30.1 µM (inactive); in the experiment with SK-OV-3, 20.9 µM (inactive); with SK-MEL-2, 19.8 µM (inactive); in the experiment with T47D it was 30.3 µM (inactive); with HOP-62 it was 0.398 µM (active). Moreover, the GI50 was 20.7 µM (inactive) in the experiment on M14; 39.6 µM (inactive) in the experiment with SF-268; 36.1 µM (inactive) with MCF7; 31.6 µM (inactive) with NCI-H460; 18.5 µM (inactive) with SK-MEL-5; 37.2 µM (inactive) in the experiment on 786-0. Also, the GI50 is 28.2 µM (inactive) in the experiment on HCT-116; 25 µM (inactive) with SF-295; > 100 µM (inactive) in the experiment on MDA-N; 31 µM (inactive) in the experiment on SN12C; 23 µM (inactive) with UO-31; 38.3 µM (inactive) in the experiment on DU-145. For the same compound, the GI50 with HOP-92 is 25.2 µM (inactive).

As for `COc1ccc(C2NC3=C(CCCC3)C3(C#N)C(=O)N=C(N)C23C#N)cc1` (stereo not given), the GI50 with CAKI-1, in the experiment on A549, in the experiment with SK-OV-3, with SK-MEL-2, in the experiment with T47D and with HOP-62 was > 100 µM (inactive) throughout. In addition, the GI50 with M14, with SF-268, in the experiment on MCF7, in the experiment on NCI-H460, in the experiment with SK-MEL-5 and with 786-0 was > 100 µM (inactive) each time. In addition, the GI50 in the experiment on HCT-116, with SF-295, in the experiment with MDA-N, in the experiment on SN12C, with UO-31 and in the experiment on DU-145 was > 100 µM (inactive) each time. Further, the GI50 in the experiment on HOP-92 was > 100 µM (inactive).

Regarding `O=C1NN(Cc2ccccc2)C(=O)N2CCC[C@@H]12`, the GI50 in the experiment with CAKI-1, in the experiment on A549, in the experiment on SK-OV-3, with SK-MEL-2, in the experiment with T47D and with HOP-62 was > 100 µM (inactive) each time. Moreover, the GI50 in the experiment on M14, in the experiment with SF-268, in the experiment with MCF7, with NCI-H460, in the experiment with SK-MEL-5 and with 786-0 was > 100 µM (inactive) in each case. Moreover, the GI50 with HCT-116, in the experiment with SF-295, in the experiment on MDA-N, in the experiment with SN12C, with DU-145 and with HOP-92 was > 100 µM (inactive) throughout.

Consider `CNc1nc2c(C)ccc3nc(N(C)C)nc-3c2n1C`, for which the GI50 in the experiment on CAKI-1, in the experiment on A549, in the experiment on SK-OV-3, in the experiment with SK-MEL-2, in the experiment with T47D and in the experiment on HOP-62 was > 10 µM (inactive) in each case. Also, the GI50 with M14, in the experiment on SF-268, in the experiment with MCF7, in the experiment with NCI-H460, with SK-MEL-5 and with 786-0 was > 10 µM (inactive) throughout. Besides, the GI50 in the experiment with HCT-116 is > 10 µM (inactive); in the experiment with SF-295 it was > 10 µM (inactive); with MDA-N, > 10 µM (inactive); in the experiment with SN12C, 7.96 µM (inactive); with UO-31 it was > 10 µM (inactive); in the experiment with DU-145, > 10 µM (inactive). Moreover, the GI50 in the experiment with HOP-92 is > 10 µM (inactive).
